Source: US20240093198A1, “TGF-BETA THERAPEUTICS FOR AGE DISEASE” (GMP BIOTECHNOLOGY LIMITED, priority 2021, published 2024)
In brackets after ≈: the same amount, converted by molar mass.

Experiments:
SARS-COV-2 USA_WA1/2020 [1] = details: Vero 76 cells
in vitro = details: African green monkey
SARS-COV-2 USA_WA1/2020 [2] = test: microbe, parasite or virus in culture; details: Severe acute respiratory syndrome coronavirus 2, Vero 76, read-out: EC50: 50% effective antiviral concentration
SARS-COV-2 = details: from Wang M et al., Cell Res. 2020; cited from earlier work
[3] = by day 28, p<0.0001, not with SOC alone

SMILES	SI = CC50/EC50 (Safety Index) (SARS-COV-2 USA_WA1/2020 [1])	Safety profile (COVID-19; 80 patients on Artemisinin)	WHO severity scale (COVID-19; Day 4 and Day 5, p=0.0045 and p=0.0370)	Recovery of patients with mild-moderate COVID-19 across symptoms (fever, sore throat, dry cough, ache) (COVID-19; added to the SOC)	Decline in body temperature in comparison to SOC arm (COVID-19; by day 2)	Improvement in respiratory rate in comparison to SOC arm (COVID-19; by day 5)	Improvement in mean SpO2 level in comparison to SOC arm (COVID-19; by day 28 (end of study), p=0.029)	O2 sat (COVID-19; [3])	respiratory rate (COVID-19; [3])	Artemisinin-related adverse events (the only ones) (COVID-19; human, in vivo)	Changes in biochemistry or hematology parameters (COVID-19; human, in vivo)	Efficacy in words (COVID-19; human, in vivo)	Safety and tolerability (COVID-19; human, in vivo)	Reduction of WHO score on the first few doses (COVID-19; p=0.0043, n=56 PulmoHeal+SOC vs n=25 SOC)	Long term lung functions (FIG. 4) (COVID-19; patients with confirmed SARS-CoV-2 infection)	CC50 (in vitro)	EC50 (SARS-COV-2 USA_WA1/2020 [2])	CC50 (SARS-COV-2)
C[C@@H]1CC[C@H]2[C@@H](C)C(=O)O[C@@H]3O[C@@]4(C)CC[C@@H]1[C@]32OO4 [Artemisinin]	140	very favorable safety profile	significant improvement over SOC	accelerated the recovery	faster and higher	faster and higher	significantly higher	fully recovered	fully recovered	transient mild rash and mild hypertension	no clinically significant changes	effective in treating subjects with mild and moderate COVID-19	safe and well-tolerated	Almost all of WHO-4 patients achieved a reduction WHO-3	restored long term lung functions	61 µg/mL (≈ 216 µM)	0.45 µg/mL (≈ 1.59 µM)	–
CCC(CC)COC(=O)[C@H](C)N[P@](=O)(OC[C@H]1O[C@@](C#N)(c2ccc3c(N)ncnn23)[C@H](O)[C@@H]1O)Oc1ccccc1 [Remdesivir]	–	–	–	–	–	–	–	–	–	–	–	–	–	–	–	–	–	> 100 µM
